Experimental findings from patent US6930131B2, “Aryl substituted 3-ethoxy phenyl trifluoromethane sulfonamides for the treatment of non-insulin dependent diabetes mellitus (NIDDM)” (Wyeth, priority 2002, dated 2005) are described below.

The test system of one data set is ob/ob (C57 B1/6J) mice. Description: Hypoglycemic effect in diabetic ob/ob mice. The class given is in vivo, mouse. The method, then:
Hypoglycemic Effect in Diabetic OB/OB Mice
Procedure: In each study, male or female ob/ob (C57 B1/6J) mice and their mean litermates (ob/+ or +/+, Jackson Laboratories) ages 2 to 5 months (10 to 65 g) were randomized according to plasma glucose into 4 groups of 10 mice. The mice were housed 5 per cage and were maintained on normal rodent chow with water ad libitum. Mice receive compound daily by gavage (suspended in 0.5 ml of 0.5% methyl cellulose); dissolved in the drinking water; or admixed in the diet. The dose of compounds given ranges from 2.5 to 200 mg/kg body weight/day. Body weight of fed animals was measured at the beginning of each week and doses for the entire week were calculated using this weight and were expressed in terms of the active moiety of the compound. Control mice receive vehicle only. […]
Measurements: The plasma was isolated by centrifugation and the concentration of glucose was measured enzymatically on an Abbott V. P. Analyzer and the plasma concentration of insulin was determined by radioimmunoassay (Heding, 1972)
Analysis of variance followed by Dunnett's Comparison Test (one-tailed) was used to estimate the significant difference between the plasma glucose values from the control group and the individual compound treated groups (CMS SAS Release 5.18). A compound will be considered active if the difference has a p<0.05.

In turn, `COc1ccc(-c2cc(COCCc3cccc(NS(=O)(=O)C(F)(F)F)c3)ccc2F)cc1` [Example 42, C,C,C-Trifluoro-N-{3-[2-(6-fluoro-4′-methoxy-biphenyl-3-yl-methoxy)-ethyl]-phenyl}-methanesulfonamide] registered a melting point of 70 to 71 °C. Moreover, in the data set on ob/ob (C57 B1/6J) mice (10 mg/kg p.o.), the “Reduction in Plasma Glucose Day 1 (6 hr) p.o.” value is −14% and the “Reduction in Plasma Glucose Day 3 (6 hr) p.o.” value is −14%.
As for `O=S(=O)(Nc1cccc(CCOCc2ccc(-c3ccc(C(F)(F)F)cc3)cc2)c1)C(F)(F)F` [Example 2, C,C,C-trifluoro-N-{3-[2-(4′-trifluoromethyl-biphenyl-4-ylmethoxy)-ethyl]-phenyl}-methanesulfonamide], the melting point lay within 98 to 100 °C. Moreover, in the data set with ob/ob (C57 B1/6J) mice (5 mg/kg p.o.), the “Reduction in Plasma Glucose Day 1 (6 hr) p.o.” value was −8% and the “Reduction in Plasma Glucose Day 3 (6 hr) p.o.” value was −34%.
`O=S(=O)(Nc1cccc(CCOCc2ccc(-c3cccc(C(F)(F)F)c3)cc2F)c1)C(F)(F)F` [Example 17, C,C,C-Trifluoro-N-{3-[2-(3-fluoro-3′-trifluoromethyl-biphenyl-4-yl-methoxy)-ethyl]-phenyl}-methanesulfonamide] gave a melting point of 60 to 61 °C.
Same read-out and setting: for `COc1ccc(-c2ccc(Cl)cc2)cc1COCCc1cccc(NC(N)=O)c1` [Example 41, {3-[2-(4′-Chloro-4-methoxy-biphenyl-3-ylmethoxy)-ethyl]-phenyl}-urea] the value was 155 °C (dec.).
Same read-out and setting: for `COc1cccc(-c2nc(COCCc3cccc(NS(=O)(=O)C(F)(F)F)c3)no2)c1` [Example 84, N-{3-[2-(5-(3-methoxy-phenyl)-[1,2,4]oxadiazol-3-ylmethoxy)-ethyl]-phenyl}-C,C,C-trifluoro-methanesulfonamide] the value was 52 to 54 °C; for `NC(=O)Nc1ccc(CCOCc2ccccc2-c2ccccc2)cc1` [Example 38, {4-[2-(Biphenyl-2-ylmethoxy)-ethyl]-phenyl}-urea], 143 to 144 °C.
Still for that read-out and setting: for `O=S(=O)(Nc1cccc(CCOCc2ccc(Br)cc2F)c1)C(F)(F)F` [Example 72, N-{3-[2-(4-Bromo-2-fluoro-benzyloxy)-ethyl]-phenyl}-C,C,C-trifluoro-methanesulfonamide] the value was 48 to 50 °C; for `O=S(=O)(Nc1cccc(CCOCc2cccc(-c3cc(Cl)cc(Cl)c3)c2)c1)C(F)(F)F` [Example 34, N-{3-[2-(3′,5′-Dichloro-biphenyl-3-ylmethoxy)-ethyl]-phenyl)-C,C,C-trifluoro-methanesulfonamide], 52 to 54 °C; for `O=S(=O)(Nc1ccc(CCOCc2ccccc2-c2ccccc2)cc1)C(F)(F)F` [Example 27, N-{4-[2-(Biphenyl-2-ylmethoxy)-ethyl]-phenyl}-C,C,C-trifluoromethanesulfonamide], 79 to 81 °C.
`O=S(=O)(NCCc1cccc(OCc2noc(-c3ccc(C(F)(F)F)cc3)n2)c1)C(F)(F)F` [Example 82, N-{2-[3-(5-(4-Trifluoromethyl-phenyl) [1,2,4]oxadiazol-3-ylmethoxy)-phenyl]-ethyl}-C,C,C-trifluoro-methanesulfonamide] gave a melting point of 83 to 86 °C.
Same read-out and setting: for `COc1ccc(-c2cccc(COCCc3cccc(NC(N)=O)c3)c2)cc1` [Example 39, {3-[2-(4′-Methoxy-biphenyl-3-ylmethoxy)-ethyl]-phenyl}-urea] the value was 87 to 89 °C; for `O=S(=O)(Nc1cccc(CCOCc2sc3ccccc3c2Cl)c1)C(F)(F)F` [Example 66, N-{3-[2-(3-Chloro-benzo[b]thiophen-2-ylmethoxy)-ethyl]-phenyl}-C,C,C-trifluoro-methanesulfonamide], 85 to 87 °C; for `O=S(=O)(Nc1cccc(CCOCc2nc(-c3ccc(C(F)(F)F)cc3)sc2Cl)c1)C(F)(F)F` [Example 63, N-(3-{2-[5-Chloro-2-(4-trifluoromethyl-phenyl)-thiazol-4-ylmethoxy]-ethyl}-phenyl)-C,C,C-trifluoromethanesulfonamide], 107 to 109 °C.
The same measure, in the same setting: for `O=S(=O)(Nc1cccc(CCOCc2noc(-c3cccc(C(F)(F)F)c3)n2)c1)C(F)(F)F` [Example 83, N-{3-[2-(5-(3-trifluoromethyl-phenyl)-[1,2,4]oxadiazol-3-ylmethoxy)-ethyl]-phenyl}-C,C,C-trifluoro-methanesulfonamide] the value was 62 to 64 °C.
On to `O=S(=O)(Nc1cccc(CCOCc2ccc(C3CCCCC3)cc2)c1)C(F)(F)F` [Example 68, N-{3-[2-(4-cyclohexyl-benzyloxy)-ethyl]-phenyl}-C,C,C-trifluoro-methane sulfonamide], for which the melting point lay in the range of 90 to 92 °C.

What is called melting point is the temperature, or range, at which the solid turns liquid.
